In patent US10844062B2, “Pyridine derivative inhibiting RAF kinase and vascular endothelial growth factor receptor, method for preparing same, pharmaceutical composition containing same, and use thereof” (SAMJIN PHARMACEUTICAL CO., LTD., priority 2016, dated 2020):

Tested on: LS513 KRAS G12V (colon)
Experiment: MTT assay
Format: cell-based
Conditions: Homo sapiens, LS-513, 72 h, Table 4; 3 days incubation; read-out: MTT assay IC50 KRAS mutant (Colon) LS513 KRAS G12V
Method: MTT assay is frequently used for the purpose of primary screening for the sensitivity of anticancer agents and to examine cytotoxicity. When cancer cells are treated with varying concentrations of any anticancer agent for a predetermined time to induce death of the cells and are then treated with MTT, and when the formation of formazan is measured, the concentration of the anticancer agent, at which about 50% of the cells survive, can be determined. This concentration value is called IC50. IC50 values differ between drugs, and thus can be characteristic of the drugs. Using this method, the effects of anticancer agents against cell proliferation can be quantitatively compared. Thus, in order to measure the cytotoxicity of samples, MTT assay was performed using CellTiter 96 Non-radioactive Cell Proliferation Assay Kit (Promega).
Cells in a cell suspension were counted with a hematocytometer, and then 200 μL of the cell suspension was added to each well of a 96 well plate at a desired concentration (cell amount determined depending on a cell line). After cell seeding, the cells were incubated in a CO2 incubator at 37° C. overnight. After one day of cell stabilization, the cells were treated with desired concentrations of the compounds. The cells were incubated in a CO2 incubator at 37° C. for 3 days, and then the sample was removed, and 200 μL of MTT solution was added to each well. After 2 hours of incubation, the MTT dilution was carefully shaken, and 200 μL of DMSO was added to each well, followed by shaking with a plate shaker for 60 minutes.

Row | Structure (SMILES) | IC50 [nM]
1 | O=C(Nc1cc(Nc2ncccc2-c2ncnc3[nH]ccc23)ccc1F)c1cc(F)cc(C(F)(F)F)c1 [Example 88, 3-Fluoro-N-2-Fluoro-5-[3-(7H-Pyrrolo[2,3-d]Pyrimidin-4-Yl)Pyridin-2-Ylamino]Phenyl-5-Trifluoromethyl Benzamide] | 609
2 | COc1cc(OC(F)(F)F)cc(C(=O)Nc2cc(Nc3ncccc3-c3ncnc4[nH]cnc34)ccc2F)c1 [Example 140, N-5-[(3-(9H-purin-6-yl)pyridin-2-yl)amino]-2-fluorophenyl-3-methoxy-5-(trifluoromethoxy)benzamide] | 294
3 | CC(C)(C#N)c1cc(F)cc(C(=O)Nc2cc(Nc3ncccc3-c3ncnc4[nH]cnc34)ccc2Cl)c1 [Example 127, N-5-[(3-(9H-purin-6-yl)pyridin-2-yl)amino]-2-chlorophenyl-3-(2-cyanopropan-2-yl)-5-fluorobenzamide] | 591
4 | O=C(Nc1cc(Nc2ncccc2-c2ncnc3[nH]cnc23)ccc1F)c1ccnc(C(F)(F)F)c1F [Example 148, N-5-[(3-(9H-purin-6-yl)pyridin-2-yl)amino]-2-fluorophenyl-3-fluoro-2-(trifluoromethyl)isonicotinamide] | 529
5 | O=C(Nc1ccc(F)c(Nc2ncccc2-c2ncnc3[nH]cnc23)c1F)c1cc(F)cc(C(F)(F)F)c1 [Example 28, N-(3-(3-(9H-purin-6-yl)pyridin-2-ylamino)-2,4-difluorophenyl)-3-fluoro-5-(trifluoromethyl)benzamide] | 958
6 | CN1CCN(c2cc(C(=O)Nc3ccc(F)c(Nc4ncccc4-c4ncnc5[nH]cnc45)c3F)cc(C(F)(F)F)c2)CC1 [Example 10, N-(3-(3-(9H-purin-6-yl)pyridin-2-ylamino)-2,4-difluorophenyl)-3-(4-methylpiperazin-1-yl)-5-(trifluoromethyl)benzamide] | 1170
7 | O=C(Nc1cccc(Nc2ncccc2-c2ncnc3[nH]cnc23)c1)c1cccc(C(F)(F)F)c1 [Example 51, N-(3-(3-(9H-Purin-6-Yl)Pyridin-2-Ylamino)Phenyl)-3-(Trifluoromethyl)Benzamide] | 5670
8 | O=C(Nc1ccc(F)c(Nc2ncccc2-c2ncnc3[nH]cnc23)c1F)c1ccccc1 [Example 57, N-(3-(3-(9H-Purin-6-Yl)Pyridin-2-Ylamino)-2,4-Difluorophenyl)Benzamide] | > 10000
9 | Cc1cccc(C(=O)Nc2ccc(F)c(Nc3ncccc3-c3ncnc4[nH]cnc34)c2F)c1 [Example 47, N-(3-(3-(9H-Purin-6-Yl)Pyridin-2-Ylamino)-2,4-Difluorophenyl)-3-Methylbenzamide] | > 10000
10 | O=C(Nc1ccc(F)c(Nc2ncccc2-c2ncnc3[nH]cnc23)c1F)N1CCN(c2ccc(F)cc2)C1=O [Example 81, N-(3-(3-(9H-purin-6-yl)pyridin-2-ylamino)-2,4-difluorophenyl)-3-(4-fluorophenyl)-2-oxoimidazolidine-1-carboxamide] | 388
11 | O=C(Nc1ccc(Cl)c(C(F)(F)F)c1)Nc1cc(Nc2ncccc2-c2ncnc3[nH]cnc23)ccc1F [Example 74, 1-(4-Chloro-3-Trifluoromethylphenyl)-3-2-Fluoro-5-[3-(9H-Purin-6-Yl)Pyridin-2-Ylamino]Phenylurea] | 68
12 | Cc1cccc(C(=O)Nc2cc(Nc3ncccc3-c3ncnc4[nH]cnc34)ccc2F)n1 [Example 64, N-2-Fluoro-5-[3-(9H-Purin-6-Yl)Pyridin-2-Ylamino)Phenyl-(6-Methylpyridin-2-Yl)Benzamide] | 300
13 | O=C(Cc1cccc(C(F)(F)F)c1)Nc1cc(Nc2ncccc2-c2ncnc3[nH]cnc23)ccc1F [Example 76, N-2-Fluoro-5-[3-(9H-Purin-6-Yl)Pyridin-2-Ylamino]Phenyl-2-(3-Trifluoromethylphenyl)Acetamide] | 426
14 | COc1ccc(C(=O)Nc2ccc(F)c(Nc3ncccc3-c3ncnc4[nH]cnc34)c2F)cc1C(F)(F)F [Example 38, N-(3-(3-(9H-Purin-6-Yl)Pyridin-2-Ylamino)-2,4-Difluorophenyl)-4-Methoxy-3-(Trifluoromethyl)Benzamide] | 1860
15 | Cc1cc(C(=O)Nc2cc(Nc3ncccc3-c3ncnc4[nH]cnc34)ccc2F)cc(C(C)(C)C#N)c1 [Example 155, N-5-[(3-(9H-purin-6-yl)pyridin-2-yl)amino]-2-fluorophenyl-3-(2-cyanopropan-2-yl)-5-methylbenzamide] | 145
16 | O=C(Nc1c(F)ccc(Nc2ncccc2-c2ncnc3[nH]cnc23)c1F)c1cccc(C(F)(F)F)c1 [Example 72, N-2,6-Difluoro-3-[3-(9H-Purin-6-Yl)Pyridin-2-Ylamino)Phenyl-3-Trifluoromethylbenzamide] | 1270
17 | CC(C)(C#N)c1cccc(C(=O)Nc2ccc(F)c(Nc3ncccc3-c3ncnc4[nH]cnc34)c2)c1 [Example 49, N-(3-(3-(9H-Purin-6-Yl)Pyridin-2-Ylamino)-4-Fluorophenyl)-3-(2-Cyanopropan-2-Yl)Benzamide] | 192
18 | Cc1cn(-c2cc(C(=O)Nc3ccc(F)c(Nc4ncccc4-c4ncnc5[nH]cnc45)c3F)cc(C(F)(F)F)c2)cn1 [Example 2, N-(3-(3-(9H-purin-6-yl)pyridin-2-ylamino)-2,4-difluorophenyl)-3-(4-methyl-1H-imidazol-1-yl)-5-(trifluoromethyl)benzamide] | > 10000
19 | CC(C)(C#N)c1cc(F)cc(C(=O)Nc2cc(Nc3ncccc3-c3ncnc4[nH]ccc34)ccc2F)c1 [Example 92, 3-(2-Cyanopropan-2-Yl)-5-Fluoro-N-2-Fluoro-5-[3-(7H-Pyrrolo[2,3-d]Pyrimidin-4-Yl)Pyridin-2-Ylamino]Phenyl Benzamide] | 1510
20 | CC(C)C(=O)Nc1ccc(F)c(Nc2ncccc2-c2ncnc3[nH]cnc23)c1F [Example 4, N-(3-(3-(9H-purin-6-yl)pyridin-2-ylamino)-2,4-difluorophenyl)isobutylamide] | > 10000
21 | COc1ccc(NC(=O)c2cccc(C(F)(F)F)c2)cc1Nc1ncccc1-c1ncnc2[nH]cnc12 [Example 70, N-4-Methoxy-5-[3-(9H-Purin-6-Yl)Pyridin-2-Ylamino)Phenyl-3-Trifluoromethylbenzamide] | 757
22 | O=C(Nc1cc(Nc2ncccc2-c2ncnc3[nH]cnc23)ccc1F)c1ccc(C(F)(F)F)cc1C(F)(F)F [Example 128, N-5-[(3-(9H-purin-6-yl)pyridin-2-yl)amino]-2-fluorophenyl-2,4-bis(trifluoromethyl)benzamide] | 1200
23 | O=C(Nc1ccc(C(F)(F)F)cc1)Nc1cc(Nc2ncccc2-c2ncnc3[nH]cnc23)ccc1F [Example 123, 1-5-[(3-(9H-purin-6-yl)pyridin-2-yl)amino]-2-fluorophenyl-3-[4-(trifluoromethyl)phenyl]urea] | 392
24 | CSc1cccc(C(=O)Nc2cc(Nc3ncccc3-c3ncnc4[nH]cnc34)ccc2F)c1 [Example 125, N-5-[(3-(9H-purin-6-yl)pyridin-2-yl)amino]-2-fluorophenyl-3-(methylthio)benzamide] | 767
25 | CC1CCN(c2ccc(C(=O)Nc3ccc(F)c(Nc4ncccc4-c4ncnc5[nH]cnc45)c3F)cc2C(F)(F)F)CC1 [Example 15, N-(3-(3-(9H-purin-6-yl)pyridin-2-ylamino)-2,4-difluorophenyl)-4-(4-methylpeperidin-1-yl)-3-(trifluoromethyl)benzamide] | 1670
